{
  "source": "paper PMC2267209",
  "about": "“Transepithelial Transport and Enzymatic Detoxification of Gluten in Gluten-Sensitive Rhesus Macaques” (PLoS ONE, 2008)",
  "key": {"[1]": {"details": "rhesus monkey, in vivo", "method": "A 0.5 ml sample of EDTA-blood was collected from an ear vein at 0, 30, 60, 120, and 180 min following the 33-mer inoculation. […] Animals were fasted at least 2 h prior to peptide inoculations. Blood collections and 33-mer inoculations were performed with sedated and anesthetized animals.\nFollowing peptide dosing and peripheral plasma collection, described above, plasma proteins were precipitated by addition of acetonitrile. Plasma was mixed with an equal volume of cold acetonitrile+0.1% formic acid, vortexed, incubated for 2 h at 4°C, and centrifuged at 14,000•g for 10 min at 4°C. […] When quantitation was performed, unlabeled 33-mer was spiked into the plasma samples prior to acetonitrile precipitation as an internal control (5 pmol/100 µl injection) and injections were performed at least in triplicate.\nMass spectrometry analysis was performed as previously described [20] with the following modifications. […] For ^D933-mer, the transitions monitored were m/z 981.0^4+→263.1^+ (30V cone voltage, 27eV collision energy.) for the quantitation assay and m/z 1307.7^3+→263.1^+ (40V cone voltage, 50eV collision energy) as a confirmatory transition. […] Levels of ^D933-mer in each sample were determined by comparison of the area under the ^D933-mer transition peak to the area under the internal standard transition peak. […]"}, "[2]": {"test_system": "celiac patient-derived T cells", "details": "ref [2], [19], cited from earlier work"}, "[3]": {"test_system": "gluten-sensitive rhesus macaque FH45", "assay": "Daily gluten challenge with or without oral EP-B2, clinical score", "assay_type": "in vivo, rhesus macaques (Macaca mulatta)", "source_text": "Gluten-sensitive FH45 and control FI96 were switched from a gluten-containing to a gluten-free diet at week 0, re-challenged with the gluten-containing diet from week 10.4 to 11.4, and then returned to a gluten-free diet for the remainder of the experiment. To test whether orally administered EP-B2 can prevent clinical symptoms resulting from gluten challenge, animals were fed a gluten-free diet with the addition of a daily slice of unbleached wheat bread (∼4 g gluten) for 8 weeks (weeks 22.9 to 30.9), during the first 4 of which (weeks 22.9 to 26.9) gluten-sensitive macaque FH45 received a daily dose of 2 g recombinant proEP-B2 dissolved in an electrolyte drink immediately prior to bread consumption. Recombinant proEP-B2 was expressed and purified as previously described, [31]. Peripheral blood samples (1 ml) were collected every 1–2 weeks from a femoral vein, and plasma was harvested and stored at −80 °C until analyzed for AGA and anti-TG2 antibodies. Clinical health was monitored as previously described. Briefly, daily clinical scores were averaged over weekly intervals to obtain each weekly mean±standard deviation. Criteria for clinical scoring (1–6 scale) were scaled relative to “clinically normal”, age-matched controls, i.e. score of 1. Score 2 corresponded to beginning of diarrhea, i.e. pasty stools. Score 3 corresponded to semi-liquid stools and decreased activity. […]"}, "[4]": {"test_system": "gluten-sensitive rhesus macaque FH45", "assay": "Indirect ELISA for plasma AGA and anti-TG2 antibodies during gluten challenge with EP-B2", "assay_type": "in vivo, rhesus macaques (Macaca mulatta)", "source_text": "Gluten-sensitive FH45 and control FI96 were switched from a gluten-containing to a gluten-free diet at week 0, re-challenged with the gluten-containing diet from week 10.4 to 11.4, and then returned to a gluten-free diet for the remainder of the experiment. To test whether orally administered EP-B2 can prevent clinical symptoms resulting from gluten challenge, animals were fed a gluten-free diet with the addition of a daily slice of unbleached wheat bread (∼4 g gluten) for 8 weeks (weeks 22.9 to 30.9), during the first 4 of which (weeks 22.9 to 26.9) gluten-sensitive macaque FH45 received a daily dose of 2 g recombinant proEP-B2 dissolved in an electrolyte drink immediately prior to bread consumption. Recombinant proEP-B2 was expressed and purified as previously described, [31]. Peripheral blood samples (1 ml) were collected every 1–2 weeks from a femoral vein, and plasma was harvested and stored at −80 °C until analyzed for AGA and anti-TG2 antibodies. Clinical health was monitored as previously described. Briefly, daily clinical scores were averaged over weekly intervals to obtain each weekly mean±standard deviation. Criteria for clinical scoring (1–6 scale) were scaled relative to “clinically normal”, age-matched controls, i.e. score of 1. Score 2 corresponded to beginning of diarrhea, i.e. pasty stools. Score 3 corresponded to semi-liquid stools and decreased activity. Score 4 corresponded to liquid stools, decreased activity, moderate dehydration and “balloon” stomach. Score 5 corresponded to liquid stools, depression, severe dehydration and balloon stomach. Score 6 corresponded to a moribund animal where prompt euthanasia is recommended.\nELISA assays were performed as previously described."}, "[5]": {"details": "daily 2 g proEP-B2 plus wheat bread"}},
  "data": [
    {"substance": "LQLQPFPQPQLPYPQPQLPYPQPQLPYPQPQPF [^D933-mer]", "values": [
      {"measurement": "Detection of peptide in peripheral plasma at 60 minutes", "setting": "[1]", "result": "detected"},
      {"measurement": "Concentration in peripheral plasma at 60 minutes", "setting": "[1]; SD", "result": "7.0 ± 0.4", "unit": "nM"}
    ]},
    {"substance": "LQLQPFPQPQLPYPQPQLPYPQPQLPYPQPQPF [33-mer, immunotoxic 33-mer gluten peptide derived from gastrointestinal proteolysis of α2-gliadin; unlabeled form used as internal standard]", "values": [
      {"measurement": "Concentration sufficient to stimulate proliferation of celiac patient-derived T cells", "setting": "[2]; T cells in culture", "result": "low nanomolar concentrations"},
      {"measurement": "Proliferation of celiac patient-derived T cell lines", "setting": "[2]; all T cell lines tested so far", "result": "activates proliferation in all celiac patient-derived T cell lines tested so far"}
    ]},
    {"substance": "EP-B2: gluten-specific barley cysteine endoprotease, dosed orally as recombinant proenzyme; oral glutenase drug candidate for celiac disease", "values": [
      {"measurement": "Clinical health during gluten challenge with EP-B2", "setting": "[3]; daily 2 g recombinant proEP-B2 oral immediately before a daily slice of wheat bread (∼4 g gluten), first 4 weeks (weeks 22.9 to 26.9), clinical score 1–6 scale", "result": "remained clinically healthy"},
      {"measurement": "Time to signs of clinical illness after EP-B2 dosing was concluded", "setting": "[3]; wheat bread gluten challenge continued without EP-B2 (weeks 26.9 to 30.9)", "result": "~1", "unit": "week"},
      {"measurement": "Anti-TG2 IgA", "setting": "[4]; EP-B2 treatment with gluten challenge", "result": "unable to detect"},
      {"measurement": "AGA levels during wheat bread/EP-B2 administration relative to gluten-containing diet (week 0)", "setting": "[4]; [5]", "result": "~3", "unit": "fold"},
      {"measurement": "Anti-TG2 IgG levels over the course of EP-B2 treatment", "setting": "[4]; [5]", "result": "elevated"}
    ]}
  ]
}
